Consider four molecules from patent US6583299B1, “α-amino-β-sulfonyl hydroxamic acid compounds” (priority 1999, dated 2003).

Data set [1] deals with human moncytic line U-937. Nature of the data set: Tumor necrosis factor assay: PMA-stimulated TNF release, TNFα ELISA. In kind it is cell-based. As to conditions: U-937 cells. As to the method: The cells used in the assay are the human moncytic line U-937 (ATCC CRL-1593). The cells are grown RPMI w/10% FCS and PSG supplement (R-10) and are not permitted to overgrow. The assay is carried out as follows:
1. Count, then harvest cells by centrifugation. Resuspend the pellet in R-10 supplement to a concentration of 1.540×10^6 cells/mL.
2. Add test compound in 65 μL R-10 to the appropriate wells of a 96-well flat bottom tissue culture plate. The initial dilution from a DMSO stock (100 mM compound) provides a 400 μM solution, from which five additional three-fold serial dilutions are made.
3. The counted, washed and resuspended cells (200,000 cells/well) in 130 μL are added to the wells.
4. Incubation is for 45 minutes to one hour at 37° C. in 5% CO2 in a water saturated container.
5. R-10 (65 μL)containing 160 ng/mL PMA (Sigma) is added to each well. 6. The test system is incubated at 37° C. in 5% CO2 overnight (18-20 hours) under 100% humidity.
7. Supernatant, 150 μL, is carefully removed from each well for use in the ELISA assay.
Coat Immulon® 2 plates with 0.1 mL/well of 1 ug/mL Genzyme mAb in 0.1 M NaHCO3 pH 8.0 buffer overnight (about 18-20 hours) at 4° C., wrapped tightly in Saran® wrap.
Wash wells thoroughly 4× with wash buffer and completely remove all wash buffer. Add 0.1 mL/well of either samples or rhTNFα standards. Dilute samples if necessary in appropriate diluent (e.g. tissue culture medium). Dilute standard in same diluent. Standards and samples should be in triplicates.
Wash plates as above. Add 0.1 mL/well of 1:200 dilution of Genzyme rabbit anti-hTNFα.
Repeat wash. Add 0.1 mL/well of 1 μg/mL Jackson goat anti-rabbit IgG (H+L)-peroxidase.
Repeat wash. Add 0.1 mL/well of peroxide-ABTS solution.
A general note: An ELISA detects its analyte on a solid surface through an enzyme-linked reagent.

Data set [2] concerns the target T1, MMP-1 (Homo sapiens, UniProt P03956).
T1 construct: host or cells: transfected HT-1080 cells
T1 sequence (P03956 100-469): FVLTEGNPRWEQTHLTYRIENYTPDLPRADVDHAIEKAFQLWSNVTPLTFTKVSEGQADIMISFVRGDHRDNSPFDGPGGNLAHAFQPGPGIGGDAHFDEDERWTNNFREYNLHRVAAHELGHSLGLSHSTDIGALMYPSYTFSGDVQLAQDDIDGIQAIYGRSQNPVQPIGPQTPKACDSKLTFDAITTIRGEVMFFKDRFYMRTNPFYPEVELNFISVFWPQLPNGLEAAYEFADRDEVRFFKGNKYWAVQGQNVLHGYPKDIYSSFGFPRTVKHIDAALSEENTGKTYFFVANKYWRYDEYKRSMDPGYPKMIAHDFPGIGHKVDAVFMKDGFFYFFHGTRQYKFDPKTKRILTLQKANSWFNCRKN
Nature of the data set: In vitro metalloprotease inhibition, fluorogenic MCA peptide substrate. In kind it is biochemical. As to conditions: recombinant human enzyme, APMA-activated, room temperature, pH 7.5.
Protocol: (§1) Briefly, 4-aminophenylmercuric acetate (APMA) or trypsin-activated MMPs were incubated with various concentrations of the inhibitor compound at room temperature for 5 minutes.
(§2) The expressed enzyme was purified first over a heparin agarose column and then over a chelating zinc chloride column. The proenzyme was activated by APMA for use in the assay.
MMP-1 expressed in transfected HT-1080 cells was provided by Dr. Harold Welgus of Washington University, St. Louis, Mo. The enzyme was also activated using APMA and was then purified over a hydroxamic acid column.
(§3) The enzyme substrate is a methoxycoumarin-containing polypeptide having the following sequence:
(§4) MCA-ProLeuGlyLeuDpaAlaArgNH2, wherein MCA is methoxycoumarin and Dpa is 3-(2,4-dinitrophenyl)-L-2,3-diaminopropionyl alanine.
(§5) The assayed inhibitor compound in DMSO/buffer solution was compared to an equal amount of DMSO/buffer with no inhibitor as control using Microfluor™ White Plates (Dynatech). The inhibitor or control solution was maintained in the plate for 10 minutes and the substrate was added to provide a final concentration of 4 μM.
(§6) Inhibition was measured as a reduction in fluorescent intensity as a function of inhibitor concentration, using a Perkin Elmer L550 plate reader. The IC50 values were calculated from those values.

Data set [3] deals with T2, MMP-13 (Homo sapiens, UniProt P45452).
T2 construct: made in house; host or cells: baculovirus / insect cells
The data set is described as above. The format is biochemical. As to conditions: recombinant human enzyme, APMA-activated, room temperature, pH 7.5; read-out: MMP-13 IC50.
Protocol: as §1, §2, §3, §4, §5, §6

Data set [4] deals with solid tumor cancers (colorectal, pancreatic, ovarian, prostate). Conditions: cited from earlier work.

Consider `COc1ccc(S(=O)(=O)CC(NC(C)=O)C(=O)NO)cc1OC` (centres unmarked) [Example 23], for which the IC50 is more than 50 µM in data set [1], more than 10 µM in data set [2] and 1500 nM in data set [3].
The like results for `COc1ccc(S(=O)(=O)CC(NC(C)=O)C(=O)NO)cc1` (centres unmarked) [Example 24] were, in that order, more than 50 µM, 5.2 µM and 650 nM.
The matching figures for `COc1ccc(S(=O)(=O)CC(NC(=O)[C@@H](C)NC(=O)OCc2ccccc2)C(=O)NO)cc1` (some centres unmarked) [Example 25]: 14 µM, 0.001 µM and 1 nM.
Regarding `CNC(=O)[C@@H](NC(=O)[C@H](CC(C)C)[C@H](O)C(=O)NO)C(C)(C)C` [marimastat], in data set [4] (clinical trials, Phase I/II), the “Most common drug-related toxicity” value was “musculoskeletal pain and stiffness”. In addition, the “Effect on cancer-specific antigens used as surrogate markers for biological activity” value in data set [4] (patients with advanced, rapidly progressive, treatment-refractory solid tumor cancers) is given as “dose-related reduction in the rise of cancer-specific antigens”.

For orientation: IC50 means the concentration at which inhibition is half-maximal.
